We go through 3 molecules from patent US20030050249A1, “Complexes of alpha-6 integrin subunits with small peptides and methods for treating indications resulting from modulation of integrin-mediated responses by altering signal transduction” (priority 2000, published 2003).

One data set deals with T1, FPR (Homo sapiens, UniProt P21462).
T1 sequence (P21462 1-350): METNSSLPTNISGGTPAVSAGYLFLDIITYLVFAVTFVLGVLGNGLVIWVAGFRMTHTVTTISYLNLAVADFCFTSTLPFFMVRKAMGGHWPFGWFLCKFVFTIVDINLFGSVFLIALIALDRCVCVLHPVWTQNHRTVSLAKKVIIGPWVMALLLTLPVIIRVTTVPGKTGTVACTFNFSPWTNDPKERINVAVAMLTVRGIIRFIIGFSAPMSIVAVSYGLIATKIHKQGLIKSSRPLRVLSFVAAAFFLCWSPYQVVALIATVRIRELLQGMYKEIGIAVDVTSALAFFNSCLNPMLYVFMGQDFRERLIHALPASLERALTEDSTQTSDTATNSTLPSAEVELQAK
Particulars: compared with FMLP; cited from earlier work.

Another data set deals with inflamed lung. Particulars: mouse, in vivo.
The nature of data set [1]: HK-X administration to normal mice.
For data set [2], the system named is normal human peripheral blood mononuclear cells. Put plainly: Effects of HK-X on cultures of human peripheral blood mononuclear cells with and without Con A (cell cycle, viability, apoptosis). It counts as cell-based. Particulars: versus vehicle. The protocol: The effects of addition of HK-X (as compared to a control of vehicle without peptide) to cultures of normal human peripheral blood mononuclear cells with and without the plant lectin, Con A, were also evaluated. […] However, HK-X induced apoptosis in a significant population of cells (˜30%) stimulated with Con A as determined by the presence of a sub G0/G1 population in the DNA profile. In cultures where the cells were not stimulated to enter the cell cycle (without Con A), the levels of sub G0/G1 were similar in HK-X treated and control cultures (<7%).

The conditions of data set [3]: mouse, in vivo.
The test system of data set [4] is rat peritoneal mast cells. Kind of data set: Binding of FITC-HK-X to rat peritoneal mast cells. Particulars: freshly isolated mast cells, FIG. 3. As to the method:
Rat peritoneal mast cells were isolated by infusion of 35 ml of Tyrode's Solution into the peritoneal cavity of anesthetized rats. The rats were then sacrificed by injection of an overdose of anesthetic. The peritoneal cells were harvested, placed into 15 ml centrifuge tubes. The cells were pelleted by centrifugation at 250×g for 10 min at room temperature.
Other cell types were also tested for the ability to bind FITC labeled HK-X on their cell surface.

Ends that are not written are not given here. Peptide text beside a SMILES is read from it. * marks the point of attachment. For = O=C*

Procedure for inflamed lung: In this model HK-X was administered intranasally for up to 3 months.

For “Met-Met-Trp-Leu-Leu (MMWLL; printed: Met-Met-Trp-Leu-Leu)”, the neutrophil function activity entry with FPR is given as “comparable in neutrophil function activity to FMLP”.
`CSCC[C@H](NC=O)C(=O)N[C@@H](CC(C)C)C(=O)N[C@@H](Cc1ccccc1)C(=O)N[C@@H](Cc1ccccc1)C(=O)O` [HK-X, f-Met-Leu-Phe-Phe] (For-MLFF-OH): the “pathological changes in the alveoli, bronchi or vessels” value with inflamed lung is recorded as “no pathological changes”. In data set [1] (10 μg to 1000 μg per adult mouse), the “distribution or numbers of nucleated cells of the peripheral blood” value is reported as “no alterations”. Also, the “numbers of antibody forming cells (PFC), IgM and IgG” value in data set [1] (mice immunized with sheep red cells, HK-X prior to and after immunization) is on record as “no alteration”. Further, in data set [1] (normal mice), the “Liver and kidney function” value was “unaffected”; the “production of required cytokines” value was “did not down regulate”; the “proliferation and differentiation of hematopoietic precursors of neutrophils, basophils, monocytes and lymphocytes” value is listed as “did not negatively affect”. In addition, the cell viability result in data set [2] is listed as “did not effect cell viability”. Also, the toxicity entry in data set [3] is reported as “no discernable toxicity”.
Take “FITC-HK-X: fluoresceinated HK-X (f-Met-Leu-Phe-Phe) (MLFF; not fully specified; also: FITC label, site not given here)”: the “numbers of FITC-HK-X bound” value in data set [4] is “roughly equivalent to that of human eosinophils”.
